Literature values as cited in PMC6245954 (European journal of medicinal chemistry, 2018).

What was measured:
[1] = in words; cited from earlier work
prostate cancer = conditions: cited from earlier work
[2] = tested on: two prostate cancer xenografts; conditions: even at the highest dose (0.73 mmol/kg); cited from earlier work

COc1cc(-c2oc3ccccc3c(=O)c2O)cc(OC)c1OC [Compd 3, 3′,4′,5′-trimethoxyflavonol]
bioavailability [1]: poor bioavailability | fold greater potency than quercetin (1) and fisetin (2) (prostate cancer): 5- to 16 fold | in vivo antitumor efficacy [2]: very moderate
